In brackets after ≈: the same amount, converted by molar mass. Where two headings read alike, the source gives them in different places.
Columns and labels:
A498 = assay: cells; assay type: cell-based; settings: Homo sapiens
Procedure, shortened: (§1)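 Human tumour lines grown in RPMI 1640 with 10% FBS were seeded at 5×10^3 cells per well, left 18 hours to attach, then exposed to samples (10 to 10^−8 μg/ml) for 48 hours. Growth was quantified by sulphorhodamine B staining of TCA-fixed cells, with absorbance read at 490 nm.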

A549 = assay: cells; assay type: cell-based; settings: Homo sapiens, A549, 48 h; for GI50: read-out: GI50; for IC (TGI): read-out: TGI
Procedure, shortened: as §1

DU145 = assay: cells; assay type: cell-based; settings: Homo sapiens
Procedure, shortened: as §1

HT29 = assay: cells; assay type: cell-based; settings: Homo sapiens, HT-29, 48 h
Procedure, shortened: as §1

MB231 = assay: cells; assay type: cell-based; settings: Homo sapiens
Procedure, shortened: as §1

MCF = assay: cells; assay type: cell-based; settings: Homo sapiens
Procedure, shortened: as §1

MEL-28 = assay: cells; assay type: cell-based; settings: Homo sapiens
Procedure, shortened: as §1

SW-620 = assay: cells; assay type: cell-based; settings: Homo sapiens
Procedure, shortened: as §1

[1] = test system: AML-12, normal mouse liver cells; settings: 24 h
Description: (§2) In order to assess the cytotoxicity of the drugs to normal cells, we used 96 well plates plated at a density of 5000 cells per well (except for the FDC-P1 which were plated at 12,000 cells per well) with normal cell lines (ATCC, Table 1) maintained as per the directions of the ATCC: AML-12, normal mouse liver cells; NRK-52E, normal rat kidney cells; L8, normal rat skeletal muscle cells; FDC-P1, normal mouse myelogeous stem cells; and H9c2 (2-1), normal rat cardiac muscle cells. The cells in each plate were permitted to settle overnight before adding the test drug.
(§3) To each well (100 μl medium) 10 μl of drug in media was added at varying concentrations (1×10-10-0.01 mg/ml final concentration) and further incubated overnight at 37° C. with 5% CO2. After 24 h the following assays were performed. All experiments were repeated at least 3 times and were assayed in duplicate.
(§4) MTS assay (CellTiter 96 aqueous) was performed according to the manufacturer's (Promega) directions (for all cell types). Cell viability (mitochondrial activity) is determined via enzymatic conversion of the formazan substrate.

[2] = test system: NRK-52E, normal rat kidney cells; settings: 24 h
[3] = test system: L8, normal rat skeletal muscle cells; settings: 24 h
[4] = test system: FDC-P1, normal mouse myelogeous stem cells; settings: 24 h
[5] = test system: H9c2 (2-1), normal rat cardiac muscle cells; settings: 24 h
Description: as §2, §3, §4

[6] = s9, 60 min, 1 μM
physchem [7] = settings: pH 7.4, log D n-Octanol-Dulbecco's PBS pH 7.4
Description: The measurement of partition coefficient was evaluated based on a miniaturized shake-flask procedure. Buffer (Dulbecco's PBS, pH 7.40) was used as the aqueous phase. The tested compound was dissolved in DMSO, at the concentration of 100 μM. The final DMSO concentration (1%.) during the octanol-buffer partitioning are very low to avoid bias on the partitioning. The amount of compound in the buffer phase was determined by HPLC with photodiode array detection after an equilibration phase of 60 min. The amount of compound in the octanol phase is calculated by subtraction of the amount of compound in buffer from the total amount of compound, which is determined from a calibration sample.
Log D is calculated as the Log10 of the amount of compound in the octanol phase divided by the amount of compound in the buffer phase. The effective range of the log D microassay is approximately −0.5 to +4.5.

CYP3A4 = CYP3A4 (Homo sapiens, UniProt P08684); assay: in vitro; settings: CYP3A4 (% inhibition)
Description: For CYP3A4 inhibition assay, the compound were tested at 10 μM in duplicate with a 0.25% final concentration of both methanol and acetonitrile in presence of the fluorescent substrate BFC (50 μM). The conversion of the BFC (7-benzyloxy-4-trifluoromethylcoumarin) in HFC (7-hydroxy-4-trifluoromethylcoumarin) was determined spectro-fluormetry after incubation with the enzyme during 30 min at 37° C.
For both assays, the fluorescent intensity measured at t=0 is subtracted from that measured after the appropriate incubation time. The ratio of signal-to-noise is calculated by comparing the fluorescence in incubations containing the test compound to the control samples containing the same solvent vehicle. The percent of control activity is calculated and reported as percent inhibition.

physchem [8] = settings: pH 7.4, aqueous buffer, Solubility Dulbecco's PBS pH 7.4
HELA-APL = assay: cells; assay type: cell-based
Procedure, shortened: as §1

HELA = assay: cells; assay type: cell-based; settings: HELA, 48 hours exposure, SRB
Procedure, shortened: as §1

IGROV-ET = assay: cells; assay type: cell-based; settings: Homo sapiens, IGROV-ET, 48 hours exposure, SRB
Procedure, shortened: as §1

IGROV = assay: cells; assay type: cell-based; settings: Homo sapiens, 48 hours exposure, SRB
Procedure, shortened: as §1

K562 = assay: cells; assay type: cell-based; settings: Homo sapiens, K562, 48 hours exposure, SRB
Procedure, shortened: as §1

LNCAP = assay: cells; assay type: cell-based; settings: Homo sapiens, 48 hours exposure, SRB
Procedure, shortened: as §1

LOVO-DOX = assay: cells; assay type: cell-based; settings: Homo sapiens, LOVO-DOX, 48 hours exposure, SRB
Procedure, shortened: as §1

LOVO = assay: cells; assay type: cell-based; settings: Homo sapiens, 48 hours exposure, SRB
Procedure, shortened: as §1

PANC-1 = assay: cells; assay type: cell-based; settings: Homo sapiens, PANC-1, 48 hours exposure, SRB
Procedure, shortened: as §1

SK-BR3 = assay: cells; assay type: cell-based; settings: Homo sapiens, SK-BR3, 48 hours exposure, SRB
Procedure, shortened: as §1

[9] = DU-145, 48 h, DU145, 48 hours exposure, SRB
[10] = SK-MEL-28, 48 h, MEL-28, 48 hours exposure, SRB
[11] = read-out: LC50 (the source's name)

Chain of CYP3A4 (P08684 whole entry): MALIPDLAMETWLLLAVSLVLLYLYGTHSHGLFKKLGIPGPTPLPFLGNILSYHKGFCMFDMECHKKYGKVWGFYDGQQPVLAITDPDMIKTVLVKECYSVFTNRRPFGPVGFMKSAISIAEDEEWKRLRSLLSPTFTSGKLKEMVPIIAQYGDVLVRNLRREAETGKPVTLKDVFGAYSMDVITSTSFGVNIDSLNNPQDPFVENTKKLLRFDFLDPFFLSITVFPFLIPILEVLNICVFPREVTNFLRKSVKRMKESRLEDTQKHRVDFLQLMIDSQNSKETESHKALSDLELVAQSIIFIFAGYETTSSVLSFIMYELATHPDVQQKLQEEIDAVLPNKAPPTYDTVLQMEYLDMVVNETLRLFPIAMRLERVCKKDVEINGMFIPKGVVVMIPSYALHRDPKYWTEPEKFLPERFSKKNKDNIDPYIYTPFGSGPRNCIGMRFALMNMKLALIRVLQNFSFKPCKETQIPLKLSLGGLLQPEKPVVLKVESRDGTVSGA

COc1c(C)cc2c(c1O)[C@@H]1C3[C@@H]4SC[C@]5(NCCc6c5[nH]c5ccc(C)cc65)C(=O)COC[C@@H](c5c6c(c(C)c(OC(C)=O)c54)OCO6)N3[C@@H](O)[C@H](C2)N1C (stereo partly drawn) [Compound 30]
CC50 (A498; A498, 48 h, read-out: LC50): 2.6 nM | GI50 (A498; A498, 48 hours exposure, SRB): 0.13 nM | IC (TGI) (A498; A498, 48 hours exposure, SRB): 0.52 nM | GI50 (A549; A549, 48 hours exposure, SRB): 0.039 nM | IC (TGI) (A549; A549, 48 hours exposure, SRB): 0.26 nM | CC50 (A549; read-out: LC50, A549, 48 hours exposure, SRB): 1.04 nM | GI50 (DU145; [9]): 0.013 nM | IC (TGI) (DU145; [9]): 0.039 nM | CC50 (DU145; DU-145, 48 h, read-out: LC50, DU145, 48 hours exposure, SRB): 0.13 nM | GI50 (HT29; HT29, 48 hours exposure, SRB): 0.104 nM | IC (TGI) (HT29; HT29, 48 hours exposure, SRB): 0.39 nM | CC50 (HT29; read-out: LC50, HT29, 48 hours exposure, SRB): 1.04 nM | CC50 (MB231; 48 h, read-out: LC50): 3.9 nM | GI50 (MB231; MB231, 48 hours exposure, SRB): 0.0026 nM | IC (TGI) (MB231; MB231, 48 hours exposure, SRB, read-out: TGI): 0.13 nM | CC50 (MCF; 48 h, read-out: LC50): 2.6 nM | GI50 (MCF; MCF, 48 hours exposure, SRB): 0.26 nM | IC (TGI) (MCF; MCF, 48 hours exposure, SRB, read-out: TGI): 0.39 nM | GI50 (MEL-28; [10]): 0.026 nM | IC (TGI) (MEL-28; [10]): 0.13 nM | CC50 (MEL-28; SK-MEL-28, 48 h, read-out: LC50, MEL-28, 48 hours exposure, SRB): 0.65 nM | CC50 (SW-620; SW-620, 48 h, read-out: LC50): 1.3 nM | IC (TGI) (SW-620; SW-620, 48 hours exposure, SRB): 0.39 nM | GI50 (SW-620; SW-620, 48 hours exposure, SRB, read-out: GI50): 0.026 nM | Liver [1]: 2.72E−07 | Kidney [2]: 4.19E−09 | Skeletal [3]: 2.51E−08 | Myelo [4]: 7.58E−09 | Heart [5]: 5.06E−07 | Human Liver S9 Metabolic Stability (% remaining) [6]: 6 % remaining | logD at 60 min (physchem [7]): > 4.9 | inhibition at 30 min, 10 µM (CYP3A4): 25% | solubility (physchem [8]): 2.24 µM (≈ 1.75 µg/mL)

C=COC(=O)Oc1c(C)c2c(c3c1[C@H]1SC[C@]4(NCCC5c6ccccc6NC54)C(=O)OC[C@@H]3N3C1[C@H]1c4c(cc(C)c(OC)c4OC(=O)OC=C)C[C@@H]([C@@H]3C#N)N1C)OCO2 (stereo partly drawn) [Compound 68]
GI50 (A549; A549, 48 hours exposure, SRB): 28.3 nM | CC50 (A549; A549, 48 hours exposure, SRB, read-out: LC50 (the source's name)): 101 nM | IC (TGI) (A549; A549, 48 hours exposure, SRB): 49.5 nM | GI50 (DU145; [9]): 29.9 nM | IC (TGI) (DU145; [9]): 86.5 nM | CC50 (DU145; DU-145, DU145, 48 hours exposure, SRB, read-out: LC50 (the source's name)): 10300 nM | TGI (HELA-APL; HELA-APL, 48 hours exposure, SRB): 6.19E−08 Molar | GI50 (HELA-APL; Homo sapiens, 48 h): 37 nM | CC50 (HELA-APL; Homo sapiens, HELA-APL, 48 hours exposure, SRB, read-out: LC50 (the source's name)): 103 nM | TGI (HELA): 6.03E−08 Molar | GI50 (HELA; Homo sapiens): 32.5 nM | CC50 (HELA; Homo sapiens, read-out: LC50 (the source's name)): 112 nM | GI50 (HT29; HT29, 48 hours exposure, SRB): 317 nM | IC (TGI) (HT29; HT29, 48 hours exposure, SRB): 95.9 nM | CC50 (HT29; HT29, 48 hours exposure, SRB, read-out: LC50 (the source's name)): 11700 nM | GI50 (IGROV-ET; 48 h): 30.8 nM | IC (TGI) (IGROV-ET; 48 h): 68.9 nM | CC50 (IGROV-ET; [11]): 206 nM | GI50 (IGROV; 48 h): 21.7 nM | IC (TGI) (IGROV; 48 h): 61.6 nM | CC50 (IGROV; [11]): 1090 nM | GI50 (K562; K562, 48 h): 20.4 nM | IC (TGI) (K562; K562, 48 h): 44.7 nM | CC50 (K562; [11]): 97.5 nM | GI50 (LNCAP; LNCaP, 48 h): 11.5 nM | IC (TGI) (LNCAP; LNCaP, 48 h): 26.6 nM | CC50 (LNCAP; LNCAP, read-out: LC50 (the source's name)): 61.3 nM | GI50 (LOVO-DOX; 48 h): 112 nM | IC (TGI) (LOVO-DOX; 48 h): 743 nM | CC50 (LOVO-DOX; [11]): 11700 nM | GI50 (LOVO; LoVo, 48 h): 27.1 nM | IC (TGI) (LOVO; LoVo, 48 h): 49.7 nM | CC50 (LOVO; LOVO, read-out: LC50 (the source's name)): 91.3 nM | GI50 (MEL-28; [10]): 7.52 nM | IC (TGI) (MEL-28; [10]): 22.4 nM | CC50 (MEL-28; SK-MEL-28, MEL-28, 48 hours exposure, SRB, read-out: LC50 (the source's name)): 67.2 nM | GI50 (PANC-1; PANC-1, 48 h): 48.1 nM | IC (TGI) (PANC-1; PANC-1, 48 h): 125 nM | CC50 (PANC-1; [11]): 11700 nM | GI50 (SK-BR3; SK-BR-3, 48 h): 29 nM | IC (TGI) (SK-BR3; SK-BR-3, 48 h): 60.9 nM | CC50 (SK-BR3; SK-BR-3, read-out: LC50 (the source's name)): 206 nM

Source: patent publication US7763615B2, “Ecteinascidin analogs for use as antitumour agents” (priority 2001, dated 2010)
